Assay results published in patent publication US11731968B2, “Tricyclic protein kinase inhibitors for promoting liver regeneration or reducing or preventing hepatocyte death” (HEPAREGENIX GMBH, priority 2018, dated 2023).

How the values were obtained:
[1] = molecular target: T1, MKK4 (Homo sapiens, UniProt P45985); experiment: KINOMEscan competition binding assay, MKK4 potency; conditions: compound concentration 100 nM; lower numbers indicate stronger binding
T1 construct: S84/D399; host or cells: HEK-293
T1 sequence (P45985 84-399): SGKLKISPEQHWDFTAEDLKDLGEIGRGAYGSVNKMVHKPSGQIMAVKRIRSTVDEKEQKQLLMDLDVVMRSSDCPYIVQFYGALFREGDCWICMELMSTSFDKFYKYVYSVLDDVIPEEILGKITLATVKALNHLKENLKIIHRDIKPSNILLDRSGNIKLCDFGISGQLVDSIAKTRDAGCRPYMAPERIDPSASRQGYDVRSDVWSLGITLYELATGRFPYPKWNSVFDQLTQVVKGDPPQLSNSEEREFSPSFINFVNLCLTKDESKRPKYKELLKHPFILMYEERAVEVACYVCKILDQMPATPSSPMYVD
Experimental: (§1) The assay was performed by combining three components: DNA-tagged kinase; immobilized ligand; and a test compound. The ability of the test compound to compete with the immobilized ligand was measured via quantitative PCR of the DNA tag. The technology is described in detail in Fabian, M. A. et al., A small molecule-kinase interaction map for clinical kinase inhibitors. Nat.
(§2) For investigation of the affinity to MKK4, MKK7 and JNK1, the kinases were produced in HEK-293 cells and subsequently tagged with DNA for qPCR detection. […] The liganded beads were blocked with excess biotin and washed with blocking buffer (SEABLOCK™ (Pierce), 1% BSA, 0.05% TWEEN®20, 1 mM DTT) to remove unbound ligand and to reduce nonspecific binding. […] All reactions were performed in polystyrene 96-well plates in a final volume of 0.135 mL. […] The kinase concentration in the eluates was measured by qPCR.
(§3) The test compounds were provided as 10 mM stock solutions. The test solutions at indicated final concentrations were prepared at DiscoverX.

[2] = molecular target: T2, JNK1 (Homo sapiens, UniProt P45983); experiment: KINOMEscan competition binding, selectivity against off-target JNK1 (PoC ratio JNK1/MKK4); conditions: compound concentration 100 nM
T2 construct: M1/Q384; host or cells: HEK-293
Experimental: as §1, §2, §3

[3] = molecular target: T3, MKK7 (Homo sapiens, UniProt O14733); experiment: KINOMEscan competition binding, selectivity against off-target MKK7 (PoC ratio MKK7/MKK4); conditions: compound concentration 100 nM
T3 construct: M1/R419; host or cells: HEK-293
T3 sequence (O14733 1-419): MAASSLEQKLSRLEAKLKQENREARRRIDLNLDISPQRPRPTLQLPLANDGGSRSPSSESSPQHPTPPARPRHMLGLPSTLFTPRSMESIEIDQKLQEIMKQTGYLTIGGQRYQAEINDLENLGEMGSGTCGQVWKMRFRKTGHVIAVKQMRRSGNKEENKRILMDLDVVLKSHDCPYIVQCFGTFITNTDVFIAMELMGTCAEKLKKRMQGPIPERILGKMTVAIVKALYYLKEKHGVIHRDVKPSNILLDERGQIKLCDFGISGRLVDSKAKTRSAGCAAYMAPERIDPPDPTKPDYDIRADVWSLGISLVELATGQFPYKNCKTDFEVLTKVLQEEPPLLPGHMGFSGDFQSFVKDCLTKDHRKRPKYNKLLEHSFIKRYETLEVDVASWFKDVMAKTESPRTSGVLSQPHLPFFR
Experimental: as §1, §2, §3

[4] = molecular target: BRaf (Homo sapiens, UniProt P15056); experiment: KINOMEscan competition binding, selectivity against off-target BRaf (PoC ratio BRaf/MKK4); conditions: compound concentration 100 nM
Experimental: as §1, §3

T2 sequence (P45983 1-384 isoform P45983-2): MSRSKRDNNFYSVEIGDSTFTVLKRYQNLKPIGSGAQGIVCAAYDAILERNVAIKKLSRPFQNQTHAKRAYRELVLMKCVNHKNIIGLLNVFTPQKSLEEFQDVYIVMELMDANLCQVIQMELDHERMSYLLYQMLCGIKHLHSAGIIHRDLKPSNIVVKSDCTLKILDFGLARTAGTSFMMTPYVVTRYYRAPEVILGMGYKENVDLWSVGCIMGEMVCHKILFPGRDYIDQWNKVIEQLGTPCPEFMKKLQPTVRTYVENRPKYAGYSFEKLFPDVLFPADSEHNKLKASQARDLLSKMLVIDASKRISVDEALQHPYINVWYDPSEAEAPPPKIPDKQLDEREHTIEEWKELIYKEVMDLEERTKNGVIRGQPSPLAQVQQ
Sequence of BRaf (P15056 whole entry): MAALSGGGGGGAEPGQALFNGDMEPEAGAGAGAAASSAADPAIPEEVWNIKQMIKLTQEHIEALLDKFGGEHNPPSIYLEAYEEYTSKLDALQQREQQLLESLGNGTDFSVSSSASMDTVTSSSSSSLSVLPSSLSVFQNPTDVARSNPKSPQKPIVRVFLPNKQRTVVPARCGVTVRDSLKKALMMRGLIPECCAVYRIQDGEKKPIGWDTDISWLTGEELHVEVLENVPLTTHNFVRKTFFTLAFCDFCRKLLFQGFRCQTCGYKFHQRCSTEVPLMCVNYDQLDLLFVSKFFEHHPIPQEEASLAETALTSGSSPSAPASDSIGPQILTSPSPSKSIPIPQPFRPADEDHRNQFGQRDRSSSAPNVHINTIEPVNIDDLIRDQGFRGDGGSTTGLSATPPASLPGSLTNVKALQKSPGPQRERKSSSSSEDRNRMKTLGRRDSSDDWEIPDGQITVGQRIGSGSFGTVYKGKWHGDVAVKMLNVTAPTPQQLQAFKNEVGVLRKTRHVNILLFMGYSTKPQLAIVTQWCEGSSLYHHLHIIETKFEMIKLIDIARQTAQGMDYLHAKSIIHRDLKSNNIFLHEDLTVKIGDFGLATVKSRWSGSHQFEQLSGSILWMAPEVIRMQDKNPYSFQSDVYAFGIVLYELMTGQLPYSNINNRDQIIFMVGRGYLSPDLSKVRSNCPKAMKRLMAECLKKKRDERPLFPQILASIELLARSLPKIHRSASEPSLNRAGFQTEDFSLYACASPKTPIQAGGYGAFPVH

Row | Structure (SMILES) | MKK4 residual percent of control binding (PoC) [1] | Selectivity vs. JNK1, ratio PoC(JNK1)/PoC(MKK4) [2] | Selectivity vs. MKK7, ratio PoC(MKK7)/PoC(MKK4) [3] | Selectivity vs. BRaf, ratio PoC(BRaf)/PoC(MKK4) [4]
1 | CCCS(=O)(=O)Nc1ccc(F)c(C(=O)c2ccc3[nH]c4ncc(-c5ccncc5)cc4c3c2)c1F [Example 4a] | + + + | +++ (PoC(JNK1)/PoC(MKK4) ≥ 30 = “+++”) | +++ (PoC(MKK7)/PoC(MKK4) ≥ 30 = “+++”) | +++ (PoC(BRaf)/PoC(MKK4) ≥ 30 = “+++”)
2 | CCCS(=O)(=O)Nc1ccc(F)c(C(=O)c2ccc3[nH]c4ncc(-c5ccc(S(N)(=O)=O)cc5)cc4c3c2)c1F [Example 4b] | + + | +++ (PoC(JNK1)/PoC(MKK4) ≥ 30 = “+++”) | +++ (PoC(MKK7)/PoC(MKK4) ≥ 30 = “+++”) | +++ (PoC(BRaf)/PoC(MKK4) ≥ 30 = “+++”)
3 | CCCS(=O)(=O)Nc1ccc(F)c(C(=O)c2ccc3[nH]c4ncc(-c5ccc(C(N)=O)cc5)cc4c3c2)c1F [Example 4e] | + + + | +++ (PoC(JNK1)/PoC(MKK4) ≥ 30 = “+++”) | +++ (PoC(MKK7)/PoC(MKK4) ≥ 30 = “+++”) | +++ (PoC(BRaf)/PoC(MKK4) ≥ 30 = “+++”)
4 | CCCS(=O)(=O)Nc1ccc(F)c(C(=O)c2ccc3[nH]c4ncc(-c5ccc(-c6nnn[nH]6)cc5)cc4c3c2)c1F [Example 4f] | + + | +++ (PoC(JNK1)/PoC(MKK4) ≥ 30 = “+++”) | +++ (PoC(MKK7)/PoC(MKK4) ≥ 30 = “+++”) | +++ (PoC(BRaf)/PoC(MKK4) ≥ 30 = “+++”)
5 | CS(=O)(=O)Nc1ccc(F)c(C(=O)c2ccc3[nH]c4ncc(-c5ccc(S(N)(=O)=O)cc5)cc4c3c2)c1F [Example 4j] | + + + | +++ (PoC(JNK1)/PoC(MKK4) ≥ 30 = “+++”) | +++ (PoC(MKK7)/PoC(MKK4) ≥ 30 = “+++”) | +++ (PoC(BRaf)/PoC(MKK4) ≥ 30 = “+++”)
6 | CCS(=O)(=O)Nc1ccc(F)c(C(=O)c2ccc3[nH]c4ncc(-c5ccc(S(N)(=O)=O)cc5)cc4c3c2)c1F [Example 4k] | + + + | +++ (PoC(JNK1)/PoC(MKK4) ≥ 30 = “+++”) | +++ (PoC(MKK7)/PoC(MKK4) ≥ 30 = “+++”) | +++ (PoC(BRaf)/PoC(MKK4) ≥ 30 = “+++”)
7 | CCCS(=O)(=O)Nc1ccc(F)c(C(=O)c2ccc3[nH]c4ncc(-c5ccc(OCC(O)CO)cc5)cc4c3c2)c1F (centres unmarked) [Example 4m] | + + + | +++ (PoC(JNK1)/PoC(MKK4) ≥ 30 = “+++”) | +++ (PoC(MKK7)/PoC(MKK4) ≥ 30 = “+++”) | +++ (PoC(BRaf)/PoC(MKK4) ≥ 30 = “+++”)
8 | CCCS(=O)(=O)Nc1ccc(F)c(C(=O)c2ccc3[nH]c4ncc(-c5ccc(C(=O)O)cc5)cc4c3c2)c1F [Example 4n] | + + + | +++ (PoC(JNK1)/PoC(MKK4) ≥ 30 = “+++”) | +++ (PoC(MKK7)/PoC(MKK4) ≥ 30 = “+++”) | +++ (PoC(BRaf)/PoC(MKK4) ≥ 30 = “+++”)
9 | CCCS(=O)(=O)Nc1ccc(F)c(C(=O)c2ccc3[nH]c4ncc(-c5ccc(N)nc5)cc4c3c2)c1F [Example 7, N-(3-(3-(6-aminopyridin-3-yl)-9H-pyrido[2,3-b]indole-6-carbonyl)-2,4-difluorophenyl)propane-1-sulfonamide] | + + + | +++ (PoC(JNK1)/PoC(MKK4) ≥ 30 = “+++”) | +++ (PoC(MKK7)/PoC(MKK4) ≥ 30 = “+++”) | +++ (PoC(BRaf)/PoC(MKK4) ≥ 30 = “+++”)
10 | CCCS(=O)(=O)Nc1cccc(C(=O)c2ccc3[nH]c4ncc(Cl)cc4c3c2)c1F [Example 8, N-(3-(3-chloro-9H-pyrido[2,3-b]indole-6-carbonyl)-2-fluorophenyl)propane-1-sulfonamide] | + (10 ≤ PoC < 30 = “+”) | +++ (PoC(JNK1)/PoC(MKK4) ≥ 30 = “+++”) | +++ (PoC(MKK7)/PoC(MKK4) ≥ 30 = “+++”) | +++ (PoC(BRaf)/PoC(MKK4) ≥ 30 = “+++”)
11 | CS(=O)(=O)Nc1c(F)ccc(C(=O)c2ccc3[nH]c4ncc(Cl)cc4c3c2)c1F [Example 9, N-(3-(3-chloro-9H-pyrido[2,3-b]indole-6-carbonyl)-2,6-difluorophenyl)methanesulfonamide] | + + + | +++ (PoC(JNK1)/PoC(MKK4) ≥ 30 = “+++”) | +++ (PoC(MKK7)/PoC(MKK4) ≥ 30 = “+++”) | +++ (PoC(BRaf)/PoC(MKK4) ≥ 30 = “+++”)
